Experimental data as given in patent publication US7601838B2, “2-Alkyl/aryl sulphonyl-1,2,3,4-tetrahydro-9H-pyrido (3,4-b) indole-3-carboxylic acid esters/amides useful as antithrombotic agents” (Council of Scientific and Industrial Research, priority 2004, dated 2009).

Assays:
[1] = test system: collagen and epinephrine induced thrombosis in mice; assay: Effect on mouse thrombosis: collagen and adrenaline induced pulmonary thromboembolism; format: in vivo; details: for protection against collagen and epinephrine induced thrombosis (in words): 30 μM/kg
Protocol: Pulmonary thromboembolism was induced by following a method of Diminno and Silver^(1). Test compounds (30 μM/Kg) or vehicle were administered orally 60 min prior to the thrombotic challenge. A mixture of collagen (150 μg/ml) and adrenaline (50 μg/mL) was administered by the rapid intravenous injection into the tail vein to induce hind limb paralysis or death. A group of 10 animals were used to evaluate the effect of test compound, while 5 mice were used to assess effect of a standard drug, aspirin and a group of vehicle treated (n=5) mice was also used each experiment.
% Protection was expressed as: […]
Ptest is the number of animals paralyzed/dead in the test compound-treated group, and Pcontrol is the number of animals paralyzed/dead in vehicle treated group.

mouse-tail Bleeding time = assay: Effect on mouse-tail bleeding time; details: mice
Protocol: The tail 2 mm from tip was incised and the blood oozed was soaked with filter paper till the bleeding stops. The time elapsed from the tip incision to the stoppage of bleeding was determined as the bleeding time. Test compound (30 μM/kg), aspirin or vehicle was given orally 60 min prior to the tail incision. Each group consisted of 5 mice.

rat platelet aggregation = assay: Ex vivo effect on rat platelet aggregation (PRP, aggregometer); format: cell-based, Sprague Dawley rats; details: 30 μM/kg ip; for % Aggregation / % Inhibition: rat PRP; for inhibition of calcium ionophore A23187 induced platelet aggregation (in words): A23187 (2.5 μg/ml); for inhibition of calcium ionophore A23187 induced platelet aggregation (in words) / inhibition of ADP induced platelet aggregation (in words) / inhibition of PMA induced platelet aggregation (in words) / inhibition of collagen induced platelet aggregation (in words) / inhibition of thrombin induced platelet aggregation (in words): rat; for inhibition of ADP induced platelet aggregation (in words): ADP (10 μM); for inhibition of PMA induced platelet aggregation (in words): PMA (1.5 μM); for inhibition of collagen induced platelet aggregation (in words): collagen (10 μg/ml); for inhibition of thrombin induced platelet aggregation (in words): thrombin (0.64 U/ml)
Protocol: Sodium citrate: The blood was centrifuged at 275×g for 20 min and the platelet rich plasma (PRP) was collect. The remaining blood was further centrifuged at 1500 g for 15 min at 20° C. to obtain platelet poor plasma (PPP). The platelet count in the PRP was adjusted to 2×10^8 cells/ml by using PPP. Adenosine-5′-diphosphate (ADP), thrombin, collagen, calcium ionophore A23187 or phorbol myristate ester (PMA) induced aggregation was monitored on a dual channel aggregometer (Chrono-log, USA). The test compound was incubated with PRP or 5 min before the addition of aggregation on inducing agent. Percent inhibition of the test compounds at various concentrations was calculated as follows: […]
(§1) Effect on venous thrombosis model in rabbit: The selected compounds were evaluated at 10 μM/Kg and 30 μM/kg dose for their efficacy against stasis induced thrombosis in LPS treated rabbits. […] Ex vivo effect of selective compounds on rat platelet aggregation: Blood was collected in sodium citrate to obtain PRP and evaluate the ex vivo effect of selective compounds ((i), (ii), (iii) at 30 μM/kg administered by the ip route) against ADP, collagen, phorbol myristate ester (PMA) calcium ionophore (A23187), or thrombin induced aggregation. It was observed that all these compounds were consistent against collagen-induced platelet aggregation (Table 3). (iii) inhibited ADP (10 μM), collagen (10 μg/ml), PMA (1.5 μM), and thrombin (0.64 U/ml) induced platelet aggregation while no inhibition was found against calcium ionophore A23187 (2.5 μg/ml) induced platelet aggregation. […] Effect on clotting parameters: The selected compounds were also tested in vitro for their effect on thrombin time (TT), prothrombin time (PT) and activated partial thromboplastin time (aPTT) at 100 μg/ml and 200 μg/ml in vitro (Table 4). The test compounds at 100 μg/ml had no significant effect of on these parameters. Some effect was though seen on PT at 200 μg/ml concentration, but the concentration seems to be quite high.

[2] = test system: stasis induced thrombosis in LPS treated rabbits; assay: Rabbit venous thrombosis model (stasis induced thrombosis in LPS treated rabbits); format: in vivo, New Zealand white strain rabbits
Protocol: (§2) [formula] 1.4 Evaluation of coagulation parameters: Blood was collected by cardiac puncture from ether-anaesthetized rat using a syringe containing 3.2% tri-sodium citrate (9:1, v/v). Plasma was obtained by centrifugation of citrated blood at 2500×g for 15 min at 20° C. Stock solutions of the test compounds were prepared freshly in DMSO and were diluted in DMSO. Thrombin time (TT), prothrombin time (PT) and activated partial thromboplastin time (aPTT) were evaluated according to manufacturer's instructions supplied with kits (Stago, France) and measured by Coagulometer (Stago, France)^(4). In each set of experiment effect of DMSO on these parameters was also assessed and was used to calculate change in TT, PT or aPTT. 1.5 Rabbit venous thrombosis model: Experiments were performed on New Zealand white strain rabbits (2-3 kg) either sex. Escherichia coli LPS strain 1055:B5 (Sigma Chemicals, USA) was injected intravenously via ear vein (1 μg/kg)^(5,6). Jugular veins on both sides were exposed and dissected free from surrounding tissue. Two loose surer were placed 1.5 cm apart and all collateral veins were ligated. Four hours after E. coli endotoxin injection (animal is watched for any signs of hypersensitivity reaction during this period), stasis was established and maintained for 45 min by tightening the two sutures. Ligated segments were removed and opened longitudinally and the thrombus was carefully removed and weighed. Heparin sodium (Beparine from beef intestinal mucosa ≧140 USP units/mg; Biological E. Limited, India) was given in doses of (0.5, 0.25, 0.1 mg/kg i.v., via ear vein) 5 min before stasis. 1.6 Effect of compound (i) on human platelet aggregation in vitro: Platelet aggregation study was done on human platelets following isolation of PRP from the human blood as described above (1.3). Aggregation was induced by collagen (10 μg/ml, 5 μg/ml), ADP (10 μM) and thrombin (0.5 U/ml). 2. Results: Effect of test compounds is indicated in the following table (1) against collagen and epinephrine induced thrombosis in mice, which is a primary screening model to detect antithrombotic efficacy of the test agents. At the same dose these compounds were also evaluated for their effect on the bleeding time in mouse (Table 1).
as §1
Values are Mean±; Compound (i); n=2, Compound (ii); n=4, Compound (iii), n=4 [n is no. of observations in 2 or more animals at 10 μM/Kg or 30 μM/Kg p.o. administered 2 h prior to the stasis] or vehicle control [n=10 observations in five animals]. In heparin treated group n=6 observations for each dose in nine animals.

[3] = test system: thrombin time (TT), prothrombin time (PT) and activated partial thromboplastin time (aPTT); assay: Evaluation of coagulation parameters (TT, PT, aPTT) in rat plasma in vitro; format: biochemical
Protocol: as §2, §1

[4] = 30 μM/kg orally 60 min prior to collagen + adrenaline challenge
[5] = 10 μM/Kg dose p.o. 2 h prior to the stasis
[6] = 30 μM/Kg dose p.o. 2 h prior to the stasis

Compound | Antithrombotic activity (AT) (% protection) [1, 4] | protection against collagen and epinephrine induced thrombosis (in words) [1] | % Aggregation (rat platelet aggregation; A23187 (2.5 μg/ml) induced) [%] | % Inhibition (rat platelet aggregation; A23187 (2.5 μg/ml) induced) [%] | inhibition of calcium ionophore A23187 induced platelet aggregation (in words) (rat platelet aggregation) | % Aggregation (rat platelet aggregation; ADP (10 μM) induced) [%] | % Inhibition (rat platelet aggregation; ADP (10 μM) induced) [%] | inhibition of ADP induced platelet aggregation (in words) (rat platelet aggregation) | % Aggregation (rat platelet aggregation; Collagen (10 μg/ml) induced) [%] | % Inhibition (rat platelet aggregation; Collagen (10 μg/ml) induced) [%] | % Aggregation (rat platelet aggregation; PMA (1.5 μM) induced) [%] | % Inhibition (rat platelet aggregation; PMA (1.5 μM) induced) [%] | inhibition of PMA induced platelet aggregation (in words) (rat platelet aggregation) | % Aggregation (rat platelet aggregation; Thrombin (0.64 U/ml) induced) [%] | % Inhibition (rat platelet aggregation; Thrombin (0.64 U/ml) induced) [%] | inhibition of collagen induced platelet aggregation (in words) (rat platelet aggregation) | inhibition of thrombin induced platelet aggregation (in words) (rat platelet aggregation) | % Reduction (thrombus wt.) [2, 6] [%] | Thrombus wt. [2, 6] | Activated partial thromboplastin time (aPTT) % Change ([3]; 100 μg/ml in vitro) [%] | also measured
COC(=O)C1Cc2c([nH]c3ccccc23)CN1S(=O)(=O)c1ccccc1C(F)(F)F (racemic) [j, 2[2-trifluoromethylbenzenesulfonyl]-1,2,3,4,-tetrahydro-9H-pyrido[3,4-b]in-dole-3-carboxylic acid ester] | 56% | – | – | – | – | – | – | – | – | – | – | – | – | – | – | – | – | – | – | – | Bleeding time (BT) % increase (1 hr) (mouse-tail Bleeding time; 30 μM/kg orally 60 min prior to tail incision): 150%
COc1ccc(S(=O)(=O)N2Cc3[nH]c4ccccc4c3CC2C(N)=O)cc1 (centres unmarked) [Compound (ii), 2[-4-methoxybenzenesulfonyl]-1,2,3,4,-tetrahydro-9H-pyrido[3,4-b]indole-3-carboxylic acid amide] | 70 ± 10 (n = 3) % | exhibited significant protection | 51 ± 5 | 54 ± 4 | inhibited | 35 ± 5 | 26 ± 10 | inhibited | 5 ± 1 | 79 ± 7 | 44 ± 12 | 26 ± 0.3 | inhibited | 44 ± 10 | 4 ± 10 | inhibited | did not inhibit | 88 | 5 ± 4 | 13 ± 7 | % Reduction (thrombus wt.) [2, 5]: −67%; Thrombus wt. [2, 5]: 79 ± 9; Prothrombin time (PT) % Change ([3]; 100 μg/ml in vitro): 9 ± 5%; Thrombin time (TT) % Change ([3]; 100 μg/ml in vitro): 9 ± 5%; Activated partial thromboplastin time (aPTT) % Change ([3]; 200 μg/ml in vitro): 11 ± 4%; Prothrombin time (PT) % Change ([3]; 200 μg/ml in vitro): 14 ± 7%; Thrombin time (TT) % Change ([3]; 200 μg/ml in vitro): 9 ± 4%
CC(=O)Oc1ccccc1C(=O)O [Aspirin, reference compound] | – | – | – | – | – | – | – | – | – | – | – | – | – | – | – | – | – | – | – | – | Antithrombotic activity (AT) (% protection) ([1]; 30 mg/Kg (aspirin, standard drug)): 38 ± 3 (n = 24) %; Bleeding time (BT) % increase (1 hr) (mouse-tail Bleeding time; 30 mg/Kg (aspirin)): 125 ± 6 (n = 30) %
NC(=O)C1Cc2c([nH]c3ccccc23)CN1S(=O)(=O)c1ccc2ccccc2c1 (centres unmarked) [Compound (iii), 2-[2-naphthalenesulfonyl]-1,2,3,4,-tetrahydro-9H-pyrido[3,4-b]indole-3-carboxylic acid amide] | 70 ± 0 (n = 3) % | exhibited significant protection | 57 ± 6 | −25 ± 2 | no inhibition | 2 ± 0.4 | 94 ± 0.2 | inhibited | 2.5 ± 0 | 47 ± 13 | 38 ± 13 | 32 ± 5 | inhibited | 28 ± 3 | 40 ± 6 | inhibited | inhibited | 57 | 11 ± 5 | 11 ± 4 | Prothrombin time (PT) % Change ([3]; 100 μg/ml in vitro): −0.24 ± 0.8%; Thrombin time (TT) % Change ([3]; 100 μg/ml in vitro): 10 ± 4%; Activated partial thromboplastin time (aPTT) % Change ([3]; 200 μg/ml in vitro): 10 ± 8%; Prothrombin time (PT) % Change ([3]; 200 μg/ml in vitro): 9 ± 0.2%; Thrombin time (TT) % Change ([3]; 200 μg/ml in vitro): 6 ± 1%
